From patent US6932975B2, “Cosmetic composition comprising a phosphoric triester and a skin activating component” (Kao Corporation, priority 1997, dated 2005) come the findings set out here.

For the assay, the system named is horny layer of the lower inner arm. Put plainly: Retention of moisturizing effect: water content in the horny layer by impedance meter (Example 2). The settings on record: 20° C., humidity 30%, average N=10; for Retention of moisturizing effect (water content in the horny layer), After 3 hr.: after additional 3 hours, washed with hot water again; for Retention of moisturizing effect (water content in the horny layer), After 15 min.: applied 1 hour, washed off with hot water, 15 minutes after. Type of assay: in vivo, human. As to the method:
Cosmetics of their corresponding formulations shown in Table 7 were prepared to determine the retention of their moisturizing effects.
A fixed amount of each of the above samples was applied to the lower inner arm of a volunteer and washed off with hot water after left at rest for 1 hour. The volunteer was got to enter an air-conditioned room kept at a temperature of 20° C. and a humidity of 30%. Fifteen minutes after that, the water content in the horny layer of the volunteer was measured by an impedance meter (manufactured by IBS Company). After additional 3 hours, the treated arm was washed with hot water again. Fifty minutes after that, the water content was measured in the same manner as described above. The values shown in the table were average values (N=10).

For the compound “Bis(butoxyethoxyethyl)ethyl phosphate [Comparative product 8]”, the “Retention of moisturizing effect (water content in the horny layer), After 3 hr.” value (“Retention of moisturizing effect … After 3 hr.” below) amounted to 40 μΩ^−1 and the “Retention of moisturizing effect (water content in the horny layer), After 15 min.” value (shortened to “Retention of moisturizing effect … After 15 min.”) is on record as 70 μΩ^−1.

On to `OCC(O)CO` [Comparative product 11, Glycerol], for which the “Retention of moisturizing effect … After 3 hr.” value is recorded as 45 μΩ^−1 and the “Retention of moisturizing effect … After 15 min.” value is 75 μΩ^−1.

Turning to `CCCCOCCOP(=O)(OCCOCCCC)OCCOCCCC` [Comparative product 9, Tris(butoxyethyl) phosphate], the “Retention of moisturizing effect … After 3 hr.” value was determined as 40 μΩ^−1 and the “Retention of moisturizing effect … After 15 min.” value is 70 μΩ^−1.

As for `O` [Comparative product 12, Purified water], the “Retention of moisturizing effect … After 3 hr.” value was 40 μΩ^−1 and the “Retention of moisturizing effect … After 15 min.” value came to 60 μΩ^−1.
